# Test results taken from paper PMC6873218, “Functional Expression of Multidrug Resistance Protein 4 MRP4/ABCC4” (Slas Discovery, 2019).
# Target: T1, Multidrug resistance protein 4 (MRP4/ABCC4) (Homo sapiens, UniProt O15439)
# T1 construct: recombinant human MRP4-his6 in Sf9 membrane vesicles
# T1 sequence (O15439 1-1325): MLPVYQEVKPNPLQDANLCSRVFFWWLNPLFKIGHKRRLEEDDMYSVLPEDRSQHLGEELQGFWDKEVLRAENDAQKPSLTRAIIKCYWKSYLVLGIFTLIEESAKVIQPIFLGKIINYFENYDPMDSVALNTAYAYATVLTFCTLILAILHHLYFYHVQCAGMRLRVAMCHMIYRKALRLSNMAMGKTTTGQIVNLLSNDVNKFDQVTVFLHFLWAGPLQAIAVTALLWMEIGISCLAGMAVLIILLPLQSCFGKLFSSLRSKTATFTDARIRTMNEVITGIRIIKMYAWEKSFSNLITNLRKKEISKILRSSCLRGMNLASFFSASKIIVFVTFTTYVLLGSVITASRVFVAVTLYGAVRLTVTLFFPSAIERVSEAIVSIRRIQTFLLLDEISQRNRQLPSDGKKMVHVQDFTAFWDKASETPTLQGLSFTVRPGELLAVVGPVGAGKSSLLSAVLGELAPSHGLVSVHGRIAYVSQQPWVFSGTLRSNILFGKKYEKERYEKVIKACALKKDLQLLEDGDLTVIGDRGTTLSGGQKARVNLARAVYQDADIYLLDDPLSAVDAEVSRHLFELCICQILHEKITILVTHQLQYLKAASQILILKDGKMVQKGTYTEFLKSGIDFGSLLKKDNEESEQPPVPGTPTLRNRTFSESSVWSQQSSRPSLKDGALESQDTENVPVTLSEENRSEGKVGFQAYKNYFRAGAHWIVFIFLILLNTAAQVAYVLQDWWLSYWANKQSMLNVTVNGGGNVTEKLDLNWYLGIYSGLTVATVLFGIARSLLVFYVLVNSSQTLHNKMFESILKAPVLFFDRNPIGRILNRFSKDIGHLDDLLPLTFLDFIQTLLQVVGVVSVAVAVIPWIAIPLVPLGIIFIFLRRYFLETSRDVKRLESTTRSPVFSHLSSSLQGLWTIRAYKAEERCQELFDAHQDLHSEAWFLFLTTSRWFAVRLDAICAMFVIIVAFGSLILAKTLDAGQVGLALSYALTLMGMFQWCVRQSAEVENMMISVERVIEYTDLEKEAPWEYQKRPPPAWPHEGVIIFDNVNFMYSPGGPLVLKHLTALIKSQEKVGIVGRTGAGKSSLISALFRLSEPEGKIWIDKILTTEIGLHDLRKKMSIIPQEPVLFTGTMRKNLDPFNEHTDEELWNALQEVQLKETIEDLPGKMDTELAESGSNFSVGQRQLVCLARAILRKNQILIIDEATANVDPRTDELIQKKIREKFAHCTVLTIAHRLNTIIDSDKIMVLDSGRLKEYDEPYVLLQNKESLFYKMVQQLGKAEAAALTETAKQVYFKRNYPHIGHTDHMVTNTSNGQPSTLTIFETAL
# Assay: fluorescent vesicular transport assay, ATP-dependent uptake in Sf9 MRP4 membrane vesicles against control vesicles (Km)
# Assay type: biochemical
substance,measurement,value
"8-(2-[fluoresceinyl]aminoethylthio)adenosine-3′,5′-cyclic monophosphate [fluo-cAMP]",Km,5.8 µM
